# US12213979B2, “Biomarkers of methotrexate-induced immune tolerance” (Genzyme Corporation, priority 2017, dated 2025)
# Assays:
# [1] = system: proteins of erythropoiesis related pathways (transferrin receptor 1, transferrin); assay: LC/MS protein mass spectrometry of spleen of treated mice; format: in vivo; conditions: day 7, rhGAA with vs without transient low-dose methotrexate
# Description: (§1) C57BL/6 (Jackson Laboratory) or C57BL/6NTac (Taconic Biosciences, Inc.) female mice between S and 12 weeks of age were housed and maintained in accordance with the Guide for the Care and Use of Laboratory Animals, under the American Association for Accreditation of Laboratory Animal Care. The Institutional Animal Care and Use Committee approved all animal procedures. […] Subsequent weekly doses of rhGAA (up to 16 weeks) were given 15 minutes after prophylactic intraperitoneal administration of 30 mg/kg diphenhydramine (West-ward Pharmaceutical). The vehicle control or formulation buffer (FB) for rhGAA. was administered similarly to reconstituted rhGAA. Blood was collected by retro-orbital Heeds from anesthetized mice or by terminal bleeds into EDTA anticoagulant Capiject micro collection tubes (Terumo) on wet ice. […]
# Blood was collected by terminal retro-orbital bleeds as described above followed by separation of plasma and PBC by centrifugation. […] Data was analyzed by Progenesis QI for Proteomics (Nonlinear Dynamics) for peak detection. […] Protein quantitation was performed through Progenesis QI for Proteomics. Fold change and p-values were calculated from the average normalized protein abundance data for each experimental group. […] Data were analyzed for enrichment scores in GO processes and other biological categories in MetaCore (Thomson Reuters).
# [2] = system: total RBCs (Ter-119+) and immature, nucleated RBCs (Ter-119+CD71+); assay: Flow cytometry of erythroid cells in bone marrow; format: in vivo, mice
# Description: (§2) C57BL/6 (Jackson Laboratory) or C57BL/6NTac (Taconic Biosciences, Inc.) female mice between S and 12 weeks of age were housed and maintained in accordance with the Guide for the Care and Use of Laboratory Animals, under the American Association for Accreditation of Laboratory Animal Care. The Institutional Animal Care and Use Committee approved all animal procedures. […] Subsequent weekly doses of rhGAA (up to 16 weeks) were given 15 minutes after prophylactic intraperitoneal administration of 30 mg/kg diphenhydramine (West-ward Pharmaceutical). The vehicle control or formulation buffer (FB) for rhGAA. was administered similarly to reconstituted rhGAA. Blood was collected by retro-orbital Heeds from anesthetized mice or by terminal bleeds into EDTA anticoagulant Capiject micro collection tubes (Terumo) on wet ice. Spleens were prepared into single-cell suspension between glass slides with or without RBC lysis. Bone marrow was collected from a single femur on wet ice.
# (§3) Anti-mouse antibodies used for flow cytometry include BioLegend antibodies PE-Ter-119 (catalog 116208), PerCP-Cy5.5-CD71 (catalog 113816), PE-Cy7-IgM (catalog 406516), Pacific Blue (PB)-CD86 (catalog 105022) and allophycocyanin-CD45 (catalog 103116). Antibodies from BD Biosciences include FITC-CD44 (catalog 553133), allophycocyanin-CD3 (catalog 550035), allophycocyanin-CD19 or allophycocyanin-Cy7-CD19 (catalog 557655 and 550992), FITC-CD1d (catalog 553843), FITC-CD23 (catalog 553138) and allophycocyanin-Cy7-CD3, (catalog 557596). Live/dead discrimination was determined by staining with BioLegend Zombie Aqua Fixable Visability Kit. Samples were run on a BD FACS Canto II (BD Biosciences) and acquired with BD FACSDiva software. Cytometry data was analyzed on Floyd( )software version 10 (FlowJo, LLC). Absolute numbers of cell population were calculated from CountBright Absolute Counting Beads (ThermoFisher Scientific). Cell types assessed include total RBCs (Ter-119^+), immature, nucleated RBCs (Ter-119^+, CD71^+), mature RBCs (Ter-119^+, […]), proerythrohlasts (Ter-119^intermediate, CD44^high), basophilic erythroblasts (Ter-119^+, CD44^highFSC^high), polychromatic erythroblasts (Ter-119^+, CD44^intermediateFSC^intermediate), orthochromatic erythroblasts and reticulocytes (Ter-119^+, CD44^intermediateFSC^low), mature red blood cells (Ter-119^+, CD44^lowFSC^low), total activated B cells (CD19^+CD86^+), activated follicular B cells (CD19^+, IgM^low/high CD23^+, CD86^+), activated marginal zone B cells (CD19^+, IgM^high CD23^−, CD86^+), and B10 regulatory B cells (CD19^+, CD1d^highCD5^+) (Allman et. al., 2004: Chen et. al., 2009; Koulnis et. al., 2011; Joly et. al., 2014).
# [3] = Hematology: CBC and reticulocyte count on Sysmex XT2000iV; format: in vivo, mice; conditions: blood; 7 days after rhGAA initiation; groups with transient low-dose methotrexate (rhGAA or FB)
# Description: as §2
# Samples were collected by retro-orbital bleed into EDTA anticoagulant Capiject micro collection tubes as described above and stored at 2-8° C. for no longer than 72 hours. CBC, WBC differential analysis and reticulocyte count were performed on Sysmex XT2000iV (Sysmex). Histology, immunohistochemistry (IHC)
# anti-rhGAA IgG antibody [4] = assay: Serum anti-rhGAA antibody titers by ELISA, dosed control mice; format: in vivo; conditions: high outlier not removed (data not shown)
# Description: as §2
# Quantitation of anti-rhGAA antibody titers from mouse serum was measured by ELBA as previously described (holy, Martin et. al. 2014). […] The reaction was stopped by addition of 1 N HCl and absorbance was immediately measured at 450/650 nm on a SpectraMax M2 (Molecular Devices). End-point titers were derived from the reciprocal of the sample dilution resulting in an absorbance value of 0.2.
# anti-rhGAA IgG antibody [5] = conditions: historical data; rhGAA with transient low-dose methotrexate ITI regimen vs rhGAA alone; cited from earlier work
# [6] = system: total RBCs (Ter-119+) and immature, nucleated RBCs (Ter-119+CD71+); assay: Flow cytometry of erythroid cells in spleen; format: in vivo, mice
# Description: as §2, §3
# [7] = Spleen weight and spleen cellularity; format: in vivo, mice; conditions: day 7; rhGAA concurrent with a single cycle of low-dose methotrexate vs rhGAA alone
# Description: as §1
# Anti-mouse antibodies used for flow cytometry include BioLegend antibodies PE-Ter-119 (catalog 116208), PerCP-Cy5.5-CD71 (catalog 113816), PE-Cy7-IgM (catalog 406516), Pacific Blue (PB)-CD86 (catalog 105022) and allophycocyanin-CD45 (catalog 103116). […] Live/dead discrimination was determined by staining with BioLegend Zombie Aqua Fixable Visability Kit. […] Cytometry data was analyzed on Floyd( )software version 10 (FlowJo, LLC). Absolute numbers of cell population were calculated from CountBright Absolute Counting Beads (ThermoFisher Scientific). […]
# [8] = system: genes associated with erythropoiesis; assay: RNA-sequencing of spleen and PBMC's of treated mice; format: in vivo; conditions: for transcriptional signatures of erythropoiesis: day 7 after rhGAA initiation, rhGAA in conjunction with low-dose methotrexate
# Description: Animals were sacrificed on day 7 after rhGAA initiation. Blood was collected by terminal retro-orbital bleeds as described above. Whole blood diluted 1 part in 2 with PBS was layered over Ficoll for the separation of peripheral blood mononuclear cells (PBMC's). Spleens were prepared into single-cell suspension between glass slides. Samples were treated for RBC lysis (BD Pharm Lyse). […] The RNA integrity number (RIN) was evaluated. on an Agilent 2100 bioanalyzer with the RNA 6000 nano kit (Agilent) or RNA 6000 pica kit (Agilent). RNA amplification was performed with the SMARTER™ PCR cDNA Synthesis Kit (Clonetech). Detection of sequencing fragments was performed on the Illumina HiSeq2000 with Illumina sequencing kits. RNA-seq data sets were filtered to remove adaptors and low-quality, reads and assessed for differential expression with a fold change of 2 and p value≤0.05. Differentially expressed genes were annotated and examined through NextBio biological data mining software (Illumina).
# [9] = system: total RBCs (Ter-119+) and immature, nucleated RBCs (Ter-119+CD71+); assay: Flow cytometry of erythroid cells in blood; format: in vivo, mice
# Description: as §2, §3
# [10] = system: erythroid ankyrin and glycophorin C; assay: Tissue mass spectrometry imaging (tMSI) of spleen; format: in vivo, mice; conditions: 7 days after rhGAA initiation, methotrexate given together with rhGAA or FB
# Description: Fresh spleen samples for tMSI were collected in 10% gelatin (Alfa Aesar catalog J62699), frozen en bloc, cut into […] sections, and deposited on indium tin oxide ([…]) glass slides. ITO glass slides were coated with matrix-assisted laser desorption/ionization (MALDI) matrix (α-cyano-4-hydroxycinnamic acid) for tMSI. Mass spectrometry imaging was performed with AB Sciex 4800 MALDI-TOF/TOF, Autoflex MALDI-TOF/TOF and 7T SolariX MALDI-FTICR mass spectrometers. The imaging data sets were analyzed with TissueView, flexlmaging, or Multimaging 1.1 (ImaBiotech).
# [11] = day 4, CD44/FSC gating, with rhGAA vs rhGAA alone
# [12] = day 4, with rhGAA vs rhGAA alone
# [13] = day 5, with rhGAA vs rhGAA alone
# [14] = day 7, CD44/FSC gating, with rhGAA vs rhGAA alone
# [15] = day 7 and 9, with rhGAA vs rhGAA alone
# [16] = day 9, CD44/FSC gating, with rhGAA vs rhGAA alone
# [17] = day 2, CD44/FSC gating, with rhGAA vs rhGAA alone
# [18] = day 2, with rhGAA vs rhGAA alone
# [19] = day 7, with rhGAA vs rhGAA alone
# [20] = day 9, with rhGAA vs rhGAA alone
compound,measurement,setting,value
CN(Cc1cnc2nc(N)nc(N)c2n1)c1ccc(C(=O)N[C@@H](CCC(=O)O)C(=O)O)cc1 [methotrexate],transferrin protein level,[1],upregulation
same,transferrin receptor 1 protein level,[1],upregulation
same,all stages of early erythroid cells,[2]; [11],significant depletion
same,mature RBCs,[2]; [11],no statistically significant differences
same,"immature, nucleated RBCs",[2]; [12],significantly reduced
same,total RBCs,[2]; [12],no Differences
same,"all erythroid cell stages, including early and mature RBCs","[2]; day 5, CD44/FSC gating, with rhGAA vs rhGAA alone",Depletion
same,"immature, nucleated RBCs",[2]; [13],significantly reduced
same,total RBCs,[2]; [13],significantly reduced
same,mature RBCs,[2]; [14],significantly reduced
same,proerythroblasts and polychromatic erythroblasts,[2]; [14],small but significant enrichment
same,"immature, nucleated RBCs",[2]; [15],no differences
same,total RBCs,[2]; [15],no differences
same,mature RBCs,[2]; [16],no differences
same,proerythroblasts and polychromatic erythroblasts,[2]; [16],small but significant enrichment
same,Hemoglobin content,[3],significantly reduced
same,Total RBC numbers (CBC),[3],significantly reduced
same,frequency and numbers of mature reticulocytes,[3],no observed differences
same,frequency of the immature reticulocyte fraction (IRF),[3],significantly enriched
same,hematocrit,[3],significantly reduced
same,"rhGAA titers and AUC, difference between dosed control groups",anti-rhGAA IgG antibody [4],no differences
same,rhGAA titers and AUC,anti-rhGAA IgG antibody [5],significantly reduced
same,"day of peak enrichment of immature, nucleated RBCs",[6],7 days
same,"time to significant reduction in immature, nucleated RBCs and mature RBCs",[6]; after the first administration of low-dose methotrexate,≤ 24 h
same,"all stages of early erythroid cells (proerythroblasts, basophilic, polychromatic, orthochromatic erythroblasts and reticulocytes)",[6]; [17],significantly diminished
same,mature RBCs,[6]; [17],significantly reduced
same,"immature, nucleated RBCs (Ter-119+CD71+)",[6]; [18],nearly complete reduction
same,total erythroid cells (Ter-119+),[6]; [18],significant reduction
same,"erythroid cells, difference between groups","[6]; day 6, with rhGAA vs rhGAA alone",No differences
same,mature RBCs,[6]; [14],no differences
same,"proerythroblasts, basophilic, polychromatic and orthochromatic erythroblasts and reticulocytes",[6]; [14],significant enrichment
same,"immature, nucleated RBCs (Ter-119+CD71+)",[6]; [19],significant expansion
same,total erythroid cells (Ter-119+),[6]; [19],large and significant enrichment
same,"immature, nucleated RBCs (Ter-119+CD71+)",[6]; [20],smaller but significant enrichment
same,total erythroid cells (Ter-119+),[6]; [20],smaller but significant enrichment
same,erythroid response,[6]; transient low-dose methotrexate alone (with FB),mimicked that of the group treated with transient low-dose methotrexate together with rhGAA
same,spleen cellularity by flow cytometry,[7],significantly greater
same,spleen weight,[7],significantly enlarged
same,transcriptional signatures of erythropoiesis,[8]; PBMC's,upregulation of transcriptional signatures of erythropoiesis
same,TfR1 in the transcriptional data set,"[8]; day 7, rhGAA and low-dose methotrexate vs rhGAA alone",upregulation
same,transcriptional signatures of erythropoiesis,[8]; spleen,upregulation of transcriptional signatures of erythropoiesis
same,"basophilic erythroblasts, orthochromatic erythroblasts, reticulocytes and mature red blood cells",[9]; [17],small but significant reduction
same,"immature, nucleated RBCs",[9]; [18],significant depletion
same,total RBCs,[9]; [18],significant depletion
same,"immature, nucleated RBCs",[9]; [12],nearly absent
same,"immature, nucleated RBCs",[9]; [14],no changes
same,mature RBCs,[9]; [14],significant reduction
same,total RBCs,[9]; [19],significantly reduced
same,"immature, nucleated RBCs","[9]; day 7, with rhGAA vs rhGAA alone, Ter-119/CD71 gating",significantly enriched
same,"immature, nucleated RBCs",[9]; [20],significantly enriched
same,total RBCs,[9]; [20],significantly enriched
same,"immature, nucleated RBCs","[9]; day 14, with rhGAA vs rhGAA alone",small but significant enrichment
same,"enrichment of immature, nucleated RBCs","[9]; day 28, with rhGAA vs rhGAA alone",absent
same,total RBCs,[9]; methotrexate alone vs vehicle control,no observed differences
same,erythroid ankyrin signal in 10 μM spleen sections,[10],diminished
same,glycophorin C signal in 10 μM spleen sections,[10],diminished
"rhGAA: recombinant human acid-α-glucosidase, enzyme replacement therapy used to treat Pompe disease",erythroid ankyrin signal in 10 μM spleen sections,[10],evenly distributed across the spleen
same,glycophorin C signal in 10 μM spleen sections,[10],evenly distributed across the spleen
